Drawing on PubChem BioAssay (NCI), this text covers GI50 and TGI for 7 compounds.

Some test systems named below: COLO 205 colon; SNB-19 CNS; SK-OV-3 ovarian; A549 NSCLC; UACC-62 melanoma; SN12C renal; CCRF-CEM leukemia; MDA-MB-435; OVCAR-5 ovarian; NCI-H226 lung.
What all share (experiment): DTP human tumour cell line panel, 48 h

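Interpolation was linear, between the two tested concentrations surrounding the appropriate level; five concentrations were tested over 48 hours in 96-well plates. Here, GI50 denotes the concentration required for 50% inhibition of growth. The concentration for full growth arrest is given as TGI.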 Where only a bound is given, the exact number is not on record here.

As for `CCOC(=O)c1sc2nc(=S)[nH]c(NC(N)=S)c2c1C`, the GI50 (usually the concentration at which growth is held to half of that of the control) in the experiment on COLO 205 colon is 18.6 µM; in the experiment on SNB-19 CNS it was 28.1 µM; in the experiment on SK-OV-3 ovarian, 20.6 µM; with A549 NSCLC it was 31.2 µM; in the experiment on UACC-62 melanoma it was 12.4 µM; with SN12C renal, 13.1 µM. Further, the GI50 in the experiment on CCRF-CEM leukemia is 7.22 µM; in the experiment with MDA-MB-435, 30.5 µM; in the experiment with OVCAR-5 ovarian, 26.1 µM. In addition, the concentration for total growth inhibition (TGI) – broadly, the concentration at which net growth stops – in the experiment with COLO 205 colon was 48.4 µM; with SNB-19 CNS, greater than 100 µM; in the experiment with SK-OV-3 ovarian, 61.3 µM; in the experiment with A549 NSCLC, 90.7 µM; in the experiment on UACC-62 melanoma, 26.1 µM; in the experiment with SN12C renal, 26.9 µM. For the same compound, the TGI turned out to be 73.9 µM in the experiment with CCRF-CEM leukemia, 70.3 µM in the experiment on MDA-MB-435, 75.7 µM in the experiment with OVCAR-5 ovarian and 21.1 µM in the experiment with NCI-H226 lung.
For `O=C(O)CN(CCN(CC(=O)O)CC(=O)O)CCN(CC(=O)O)CC(=O)O`, the GI50 is 4.55 µM in the experiment on COLO 205 colon; 5.18 µM in the experiment on SNB-19 CNS; 3.19 µM in the experiment with SK-OV-3 ovarian; 1.62 µM in the experiment with A549 NSCLC; 3.35 µM in the experiment on UACC-62 melanoma; 2.8 µM in the experiment on SN12C renal. Moreover, the GI50 with CCRF-CEM leukemia was 3.18 µM; in the experiment on MDA-MB-435 it was 3.94 µM; with OVCAR-5 ovarian, 4.01 µM; with NCI-H226 lung, 4.65 µM. Further, the total growth inhibition concentration (TGI) came to 16.5 µM in the experiment with COLO 205 colon; 61.6 µM in the experiment with SNB-19 CNS; 8.62 µM in the experiment with SK-OV-3 ovarian; 3.5 µM with A549 NSCLC; 15.9 µM in the experiment with UACC-62 melanoma; 13.9 µM with SN12C renal. Also, the TGI in the experiment with CCRF-CEM leukemia was greater than 100 µM; in the experiment with MDA-MB-435, 21.8 µM; in the experiment on OVCAR-5 ovarian, 20 µM; in the experiment on NCI-H226 lung, 16.5 µM.
With `COc1cc(OC)c(OC)cc1/C=C/c1ccccn1`, the TGI with COLO 205 colon, with SNB-19 CNS, with SK-OV-3 ovarian, in the experiment on A549 NSCLC, in the experiment with UACC-62 melanoma and in the experiment on SN12C renal was greater than 10 µM each time. Besides, the total growth inhibition concentration (TGI) with CCRF-CEM leukemia, in the experiment on MDA-MB-435, with OVCAR-5 ovarian and in the experiment with NCI-H226 lung was greater than 10 µM in each case.
Consider `C=C1C(=O)O[C@@H]2C[C@@]3(C)CCC[C@H](C)C3=C[C@H]12` (tested in a mixture with another compound), for which the TGI in the experiment on COLO 205 colon was found to be 3.18 µM; in the experiment with SNB-19 CNS, 22.4 µM; in the experiment on SK-OV-3 ovarian, 22.7 µM; in the experiment on A549 NSCLC it was 18.6 µM; in the experiment with UACC-62 melanoma, 6.94 µM; with SN12C renal, 3.44 µM. Further, the TGI in the experiment on CCRF-CEM leukemia is greater than 100 µM; with MDA-MB-435, 3.72 µM; with OVCAR-5 ovarian, 15.8 µM; in the experiment with NCI-H226 lung, 16.6 µM.
Take `CCOc1cc(/C=C/C(=O)CC(=O)/C=C/c2ccc(OC(=O)CNc3nc4ccc(OC)cc4s3)c(OCC)c2)ccc1OC(=O)CNc1nc2ccc(OC)cc2s1`: the GI50 in the experiment with COLO 205 colon is 14 µM; in the experiment with SNB-19 CNS, 6.02 µM; in the experiment with SK-OV-3 ovarian it was 9.89 µM; in the experiment on A549 NSCLC it was 4.94 µM; in the experiment with UACC-62 melanoma, 7.6 µM; in the experiment on SN12C renal it was 11.6 µM. The GI50 was 1.96 µM in the experiment with CCRF-CEM leukemia, 2.46 µM with MDA-MB-435, 15.3 µM in the experiment on OVCAR-5 ovarian and 12.9 µM in the experiment on NCI-H226 lung. Also, the TGI with COLO 205 colon turned out to be 29.3 µM; in the experiment with SNB-19 CNS, 19.4 µM; with SK-OV-3 ovarian it was 53 µM; in the experiment on A549 NSCLC it was 31 µM; in the experiment on UACC-62 melanoma it was 20.3 µM; in the experiment with SN12C renal, 65.5 µM. The TGI in the experiment with CCRF-CEM leukemia was found to be 5.46 µM; with MDA-MB-435, 8.3 µM; with OVCAR-5 ovarian, 34 µM; with NCI-H226 lung, 34.1 µM.
With `O=C(c1ccccc1)c1nc2ccc(Cl)cc2cc1C(Br)Br`, the TGI in the experiment with COLO 205 colon was 1.6 µM; in the experiment with SNB-19 CNS, 1.42 µM; in the experiment with SK-OV-3 ovarian, 2.73 µM; with A549 NSCLC, 3.31 µM; with UACC-62 melanoma it was 2.06 µM; in the experiment with SN12C renal, 0.836 µM. Besides, the TGI in the experiment on CCRF-CEM leukemia is 7.11 µM; in the experiment on MDA-MB-435, 1.14 µM; in the experiment with OVCAR-5 ovarian, 2 µM; with NCI-H226 lung it was 3.26 µM.
With `CCn1c(-c2nonc2N)nc2cnc(Oc3cccc(NC(=O)c4ccc(OCCN5CCOCC5)cc4)c3)cc21`, the GI50 is 3.34 µM with COLO 205 colon; 12.1 µM with SNB-19 CNS; 7.33 µM in the experiment with SK-OV-3 ovarian; 2.52 µM in the experiment on A549 NSCLC; 6.39 µM with UACC-62 melanoma; 6.26 µM in the experiment with SN12C renal. The GI50 is 0.671 µM in the experiment on CCRF-CEM leukemia, 7.39 µM with MDA-MB-435, 5.22 µM with OVCAR-5 ovarian and 1.24 µM with NCI-H226 lung. Moreover, the TGI in the experiment on COLO 205 colon, with SNB-19 CNS, with SK-OV-3 ovarian, with A549 NSCLC, in the experiment with UACC-62 melanoma and in the experiment with SN12C renal was greater than 25 µM throughout. The TGI with CCRF-CEM leukemia, in the experiment with MDA-MB-435, with OVCAR-5 ovarian and in the experiment with NCI-H226 lung was greater than 25 µM each time.
